The source of these data is patent US10988477B2 (Merck Patent GmbH, priority 2018, dated 2021).

One assay concerns the target GCN2 kinase (Homo sapiens, UniProt Q9P2K8). Briefly: GCN2 enzyme inhibition assay (Transcreener ADP2 fluorescence polarization). Particulars: 280 μM ATP. The format is biochemical. The method, boiled down:
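4 nM GCN2 + 200 μM (RS)7 + compound (0–8 μM), 10 min preinc.; start with ATP (280 μM final); 1 h, 25 °C; pH 7.5 Tris/NaCl/MgCl2/DTT; ADP FP readout; IC50, Ki(app) via tight-binding fit.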
In general terms: Polarisation of emitted light reports the rotation of a fluorescent probe.

Assay [1] addresses intracellular GCN2 (phosphorylation of the GCN2 substrate eIF2α) (Homo sapiens, UniProt Q9P2K8). The assay can be described thus: GCN2 cellular inhibition assay (AlphaScreen SureFire P-eIF2α Ser51, borrelidin-treated U2OS cells). Particulars: biomarker assay, phosphorylated eIF2α Ser51 in borrelidin-treated U2OS cells. The class given is cell-based. The gist of the method: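 Borrelidin at 10 μM is added to U2OS cells immediately after compound (4-fold dilution series, 40 μM top final) for 1 h at 37 °C. Phosphorylated eIF2α Ser51 in lysates is quantified by AlphaScreen and expressed as percent inhibition against borrelidin-stimulated controls.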
For orientation: In Alpha technology, singlet oxygen from a donor bead excites a nearby acceptor bead.

[2] abbreviates: Enzyme activity for compounds of Formula IV, Ki(app), 25° C.
[3] abbreviates: compounds of Formula II, 4 nM GCN2 kinase.

Chain of GCN2 kinase (Q9P2K8 whole entry): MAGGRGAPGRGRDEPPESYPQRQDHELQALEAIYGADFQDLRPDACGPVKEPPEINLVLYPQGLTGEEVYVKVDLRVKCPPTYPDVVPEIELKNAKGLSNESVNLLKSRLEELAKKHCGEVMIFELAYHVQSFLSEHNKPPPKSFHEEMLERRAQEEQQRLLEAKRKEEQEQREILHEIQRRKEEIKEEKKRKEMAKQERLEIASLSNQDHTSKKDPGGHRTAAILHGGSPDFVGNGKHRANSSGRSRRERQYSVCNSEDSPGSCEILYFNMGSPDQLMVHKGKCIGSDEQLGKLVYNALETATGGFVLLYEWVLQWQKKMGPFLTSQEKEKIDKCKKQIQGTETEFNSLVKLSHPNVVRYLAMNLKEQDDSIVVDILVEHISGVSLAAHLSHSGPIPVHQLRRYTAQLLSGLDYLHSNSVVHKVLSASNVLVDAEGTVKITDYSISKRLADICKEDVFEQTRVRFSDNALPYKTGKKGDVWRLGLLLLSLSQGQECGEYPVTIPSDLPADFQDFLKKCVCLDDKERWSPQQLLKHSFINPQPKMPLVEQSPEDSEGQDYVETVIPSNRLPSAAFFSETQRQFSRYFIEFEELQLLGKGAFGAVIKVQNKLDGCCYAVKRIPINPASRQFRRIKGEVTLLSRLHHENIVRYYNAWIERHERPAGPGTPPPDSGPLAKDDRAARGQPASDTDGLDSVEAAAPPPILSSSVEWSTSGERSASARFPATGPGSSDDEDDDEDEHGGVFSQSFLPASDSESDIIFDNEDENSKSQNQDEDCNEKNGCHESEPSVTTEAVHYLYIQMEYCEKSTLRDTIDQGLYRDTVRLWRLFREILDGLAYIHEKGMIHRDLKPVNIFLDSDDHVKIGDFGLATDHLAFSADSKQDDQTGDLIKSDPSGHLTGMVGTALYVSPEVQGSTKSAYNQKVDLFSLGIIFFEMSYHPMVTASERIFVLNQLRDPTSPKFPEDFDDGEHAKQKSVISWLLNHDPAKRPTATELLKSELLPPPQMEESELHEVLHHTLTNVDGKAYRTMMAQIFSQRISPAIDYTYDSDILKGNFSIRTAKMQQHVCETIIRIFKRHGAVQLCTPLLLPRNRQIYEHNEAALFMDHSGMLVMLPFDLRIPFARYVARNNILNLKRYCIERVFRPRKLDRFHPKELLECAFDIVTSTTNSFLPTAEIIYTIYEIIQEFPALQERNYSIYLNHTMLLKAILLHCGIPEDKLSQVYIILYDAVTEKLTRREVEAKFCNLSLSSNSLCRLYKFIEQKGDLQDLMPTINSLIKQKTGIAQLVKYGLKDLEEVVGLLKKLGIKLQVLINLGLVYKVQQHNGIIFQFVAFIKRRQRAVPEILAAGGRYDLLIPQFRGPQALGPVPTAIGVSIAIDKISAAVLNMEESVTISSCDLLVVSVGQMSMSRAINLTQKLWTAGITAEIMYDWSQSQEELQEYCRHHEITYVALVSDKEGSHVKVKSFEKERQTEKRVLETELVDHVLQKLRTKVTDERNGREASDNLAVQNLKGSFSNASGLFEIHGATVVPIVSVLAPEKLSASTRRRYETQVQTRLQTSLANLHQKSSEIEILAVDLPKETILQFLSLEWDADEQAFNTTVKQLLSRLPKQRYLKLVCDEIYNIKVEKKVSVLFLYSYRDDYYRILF
Chain of intracellular GCN2 (phosphorylation of the GCN2 substrate eIF2α) (Q9P2K8 whole entry): as above

Broadly, the IC50 is the concentration needed to halve the response being measured. Take `C[C@H]1[C@@H](c2cn[nH]c2)CCCN1c1ccnc(-c2cnc3cnc(Br)cn23)n1` (relative stereo) [IV-387, Cis-6-Bromo-3-(4-(2-methyl-3-(1H-pyrazol-4-yl)piperidin-1-yl)pyrimidin-2-yl)imidazo[1,2-a]pyrazine]: the Ki at GCN2 kinase (setting [2]) was less than 10 nM. Moreover, in assay [1] (compounds of Formula IV), the IC50 is less than 500 nM.

Turning to `OC1CCN(c2ccnc(-c3cnc4cnc(C(F)(F)F)cn34)n2)CC1c1cn[nH]c1` (single isomer, unassigned) [IV-621, 3-(1H-Pyrazol-4-yl)-1-(2-(6-(trifluoromethyl)imidazo[1,2-a]pyrazin-3-yl)pyrimidin-4-yl)piperidin-4-ol], the Ki at GCN2 kinase (setting [2]) was less than 10 nM. The molecule further gave an IC50 in assay [1] (compounds of Formula IV) of 500 to 5000 nM.

`OCCC1CCN(c2cc(-c3cnc4ccc(C(F)F)nn34)ccn2)CC1` [II-168, 2-(1-(4-(6-(Difluoromethyl)imidazo[1,2-b]pyridazin-3-yl)pyridin-2-yl)piperidin-4-yl)ethanol] displayed a Ki on GCN2 kinase (setting [3]) of 10 to 1000 nM. The same molecule yielded an IC50 in assay [1] (compounds of Formula II) of 500 to 5000 nM.

As to `CS(=O)(=O)NCC1CCCN(c2cc(-c3cnc4ccc(C(F)F)nn34)cnc2C#N)C1` (stereo not drawn) [II-117, N-((1-(2-Cyano-5-(6-(difluoromethyl)imidazo[1,2-b]pyridazin-3-yl)pyridin-3-yl)piperidin-3-yl)methyl)methanesulfonamide], the Ki at GCN2 kinase (setting [3]) was 10 to 1000 nM. This molecule yielded an IC50 in assay [1] (compounds of Formula II) of 500 to 5000 nM.

`Cc1noc([C@@H]2CN(c3ccnc(-c4cnc5cnc(C(F)(F)F)cn45)n3)C[C@H](C)O2)n1` [IV-712] yielded a Ki on GCN2 kinase (setting [2]) of 100 to 1000 nM. For the same molecule, the IC50 in assay [1] (compounds of Formula IV) was greater than 5000 nM.

`CS(=O)(=O)NCC1CN(c2cc(-c3cnc4ccc(C(F)F)nn34)ncn2)CC1O` (stereo not drawn) [II-140, N-((1-(6-(6-(Difluoromethyl)imidazo[1,2-b]pyridazin-3-yl)pyrimidin-4-yl)-4-hydroxypyrrolidin-3-yl)methyl)methanesulfonamide] returned a Ki on GCN2 kinase (setting [3]) of 10 to 1000 nM. Besides, in assay [1] (compounds of Formula II), the IC50 is greater than 5000 nM.

As to `OC1([C@@H]2CN(c3cc(-c4cnc5ccc(C(F)F)nn45)ncn3)CCN2)CC1` [II-454, (S)-1-(4-(6-(6-(Difluoromethyl)imidazo[1,2-b]pyridazin-3-yl)pyrimidin-4-yl)piperazin-2-yl)cyclopropan-1-ol], on GCN2 kinase (setting [3]), the Ki fell in the range of 10 to 1000 nM. The molecule further had an IC50 in assay [1] (compounds of Formula II) greater than 5000 nM.

`C[C@H]1C[C@H](c2c[nH]nc2F)CN(c2ccnc(-c3cnc4cnc(C(F)(F)F)cn34)n2)C1` [IV-764, 3-(4-((3R,5S)-3-(3-fluoro-1H-pyrazol-4-yl)-5-methylpiperidin-1-yl)pyrimidin-2-yl)-6-(trifluoromethyl)imidazo[1,2-a]pyrazine]: the IC50 against GCN2 kinase (compounds of Formula IV, 4 nM GCN2 kinase) is 10 to 1000 nM; in assay [1] (compounds of Formula IV) it was less than 500 nM.

In turn, `CC1(C(N)=O)CCCN(c2ccnc(-c3cnc4cnc(C(F)F)cn34)n2)C1` (stereo not drawn) [IV-57, 1-(2-(6-(Difluoromethyl)imidazo[1,2-a]pyrazin-3-yl)pyrimidin-4-yl)-3-methylpiperidine-3-carboxamide] registered a Ki on GCN2 kinase (setting [2]) of 100 to 1000 nM. Moreover, in assay [1] (compounds of Formula IV), the IC50 is greater than 5000 nM.

As to `CNc1cc(-c2cnc3ccc(C(F)F)nn23)cc(N2CCO[C@H](CNS(C)(=O)=O)C2)n1` [II-69, (S)—N-((4-(4-(6-(Difluoromethyl)imidazo[1,2-b]pyridazin-3-yl)-6-(methylamino)pyridin-2-yl)morpholin-2-yl)methyl)methanesulfonamide], the Ki at GCN2 kinase (setting [3]) is less than 10 nM. Also, in assay [1] (compounds of Formula II), the IC50 is less than 500 nM.

Turning to `Clc1ccc2ncc(-c3ccnc(N4CCOCC4)c3)n2n1` [II-194, 4-(4-(6-Chloroimidazo[1,2-b]pyridazin-3-yl)pyridin-2-yl)morpholine], the Ki at GCN2 kinase (setting [3]) lay within 10 to 1000 nM. For the same molecule, in assay [1] (compounds of Formula II), the IC50 was greater than 5000 nM.

For the molecule `Cc1n[nH]cc1C1CCCN(c2ccnc(-c3cnc4cnc(C(F)F)cn34)n2)C1` (single isomer, unassigned) [IV-468, 6-(Difluoromethyl)-3-(4-(3-(3-methyl-1H-pyrazol-4-yl)piperidin-1-yl)pyrimidin-2-yl)imidazo[1,2-a]pyrazine], the Ki at GCN2 kinase (setting [2]) lay in the range of 10 to 100 nM. In addition, the IC50 in assay [1] (compounds of Formula IV) lay within 500 to 5000 nM.
